Results on 38 compounds are retold here after patent US12673039B2, “Methods of inducing autophagy using coumarin derivatives and related compounds” (Buck Institute for Research on Aging, priority 2019, dated 2026).

Test [1] concerns TFEB. In words: TFEB activation screen, % activation/control at 24 and 48 hrs (Table 1). As to conditions: Homo sapiens, 24 h. It is filed as cell-based, human. On the procedure:
FIG. 25, panels A-B::AIC106 identified as a lead compound in a TFEB-transcription based screen. Panel A) Rat Neuronal N27 cells were transfected with a vector construct driving expression of secreted-Gaussia luciferase (Sec-Gaussia) in control of 2 kb human TFEB promoter. Next day, cells were seeded into 96-well cell culture plate and exposed to compounds (30 μM) from natural product library (NPL-640) or DMSO-control. After 24 and 48 hours of compound treatment supernatant from the cells was collected and TFEB promoter activity determined by quantifying luciferase activity. Panel B) Effects of AIC106 treatment on HLH-30 expression after 24 hours treatment were determined by immunoblot against GFP in young adult stage of GFP-tagged HLH-30 strain (MAH235) following total protein extraction.
It was discovered that small structural alterations in the C1 compound can have significant effects on the degree of TFEB activation (see, e.g., FIG. 17) the screening systems described herein identified a number of structures related to C1 that similarly induce TFEB.
In vitro drug screening studies. […] We utilized for these studies a 3000 compound natural product derivative library (Timtec, Newark, DE) in […] transfected with a sensitive TFEB promotor-Gaussian luciferase construct. […] C1 is a coumarin-related compound, part of a family of natural benzopyrones found in many edible plants.
To identify novel transcriptional inducers of TFEB, we transfected rat neuronal N27 cells with a vector driving expression of secreted-luciferase under control of the human TFEB promoter. […] AIC106 belongs to a family of coumarin compounds containing an active benzopyrone ring.

Test [2] addresses T1, DAF-12 (Caenorhabditis elegans, UniProt G5EFF5).
T1 construct: expressed in transfected cells; host or cells: HEK293T
T1 sequence (G5EFF5 516-753 limits assumed): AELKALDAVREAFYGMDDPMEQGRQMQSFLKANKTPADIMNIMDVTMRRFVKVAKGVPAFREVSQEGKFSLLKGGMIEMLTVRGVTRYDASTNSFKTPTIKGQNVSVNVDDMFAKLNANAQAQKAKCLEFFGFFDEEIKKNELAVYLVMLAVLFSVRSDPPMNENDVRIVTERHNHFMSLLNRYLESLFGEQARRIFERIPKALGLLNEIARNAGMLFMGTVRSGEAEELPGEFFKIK
Put plainly: Mammalian one-hybrid DAF-12 activity assay (HEK293T). It is filed as cell-based, human. To be noted: compound alone. The protocol:
FIG. 10 illustrates that coumarin 106 (“C1”, “AIC106”) inhibits induction of the worm FXR homologue DAF-12. The ability of C1 (10 μM) to inhibit activation of the FXR worm homologue DAF-12 by its ligand dafachronic acid (Df acid); values are fold activity induction versus untreated controls; ****p<0.01 versus GW; **p<0.05 versus GW.
FIG. 22, panels A-H: AIC106-induced HLH-30 expression is mediated by the nuclear hormone receptor DAF-12. Panel A) The upstream promoter region (2 kB) of hlh-30 was analyzed by JASPAR CORE database to determine DAF-12 binding sites (1: SEQ ID NO:1, 2: 1: SEQ ID NO:2, 3: SEQ ID NO:3, 4: SEQ ID NO:4, 5: SEQ ID NO:5, 6: SEQ ID NO:6, 7: SEQ ID NO:7, 8: SEQ ID NO:8, 9: SEQ ID NO:9, 10: SEQ ID NO:10, 11: SEQ ID NO:11, 12: SEQ ID NO:12). Panel B) Relative fold change in mRNA of hlh-30 compared to DMSO-control was quantified using qRT-PCR in young adult wild-type N2 and daf-12(rh61rh411) worms post-24 hours treatment with AIC106. [N=3 independent experiments (mean±SD). **p<0.01, by one-way ANOVA with Sidak's multiple comparisons test]. Panel C) Effects of AIC106 on DAF-12 activity was determined in a mammalian one-hybrid assay by quantifying changes in the luciferase activity of DAF-12 ligand (dafachronic acid, DA) induced treatment. [N=3 independent experiments (mean±SD). *p<0.05 **p<0.01 and ***p<0.001, by one-way ANOVA with Tukey's multiple comparisons test]. Panel D) Schematic diagram showing that addition of AIC106 or inhibition of DAF-12 ligand synthesis, which leads to un-liganded DAF-12 may result in enhanced HLH-30 expression. Panel E) Dafadine-A (DFA), a specific inhibitor of key enzyme required for synthesis of DAF-12 ligand induces HLH-30 expression. Immunoblot for GFP was performed on protein lysate of HLH-30; GFP (MAH235) young adult worms treated with DFA or DMSO-control for 24 hours. Panel F) Protection against mitochondrial toxin (FCCP) was determined by quantifying survival of young adult worms treated 24 hours with DFA or DMSO-control. [N=3 independent experiments (mean±SD). **p<0.01, by two-way ANOVA with Tukey's multiple comparisons test]. Panel G) Motor function in day-7 NL5901 worms were quantified by scoring number of thrashes for an individual worm over the period of 30 seconds (dots) in DFA and DMSO-control treatment. [N=3 independent experiments (mean±SD). **p<0.01, by unpaired t-test] […] [N=3 independent experiments (mean±SD). *p<0.05, by one-way ANOVA with Tukey's multiple comparisons test].
FIG. 29, panels A-C: AIC106 modulates DAF-12 activity. […] Luciferase activity was measured to quantify DAF-12 activity. Panel C) Dose dependent increase in DAF-12 activity after treatment with known DAF-12 ligand, dafachronic acid (DA) was determined by quantifying luciferase activity. […]

`O=c1oc2ccc(Br)cc2c(-c2ccc(Cl)cc2)c1-c1ccc(Cl)cc1Cl` [C4]: in test [1], the activity at 30 µM amounted to 432%. Still for that read-out and setting: the same measure for `O=c1oc2ccc(Cl)cc2c(-c2ccc(Cl)cc2)c1-c1ccc(Cl)cc1` [H3]: 361%. Still for that read-out and setting: the figure for `COc1ccc(-c2c(-c3ccccc3)c3ccc(O)cc3oc2=O)c(Cl)c1` [F2] is 341%; for `O=c1oc2ccccc2c(-c2ccccc2)c1-c1ccccc1` [H4] it is 346%; for `O=c1oc2cc(O)ccc2c(Cc2ccccc2)c1-c1ccccc1` [G2] it is 341%. On the same count and under the same terms, the figure for `Cc1ccc2oc(=O)c(-c3ccc(Cl)cc3Cl)c(-c3ccc(Cl)cc3)c2c1` [B6] is 91.2%; for `Cc1cc2oc(=O)c(-c3ccccc3Cl)c(-c3ccccc3)c2cc1Cl` [A6] it is 76.6%; for `O=C(O)c1ccccc1-c1c2ccc(=O)cc-2oc2cc(O)ccc12` [A2] it is 293%. Turning to `Cc1cc2oc(=O)c(-c3ccc(Cl)cc3)c(-c3ccc(Cl)cc3)c2cc1Cl` [D5], the activity at 30 µM in test [1] turned out to be 103%. Regarding `O=c1oc2c(Cl)cc(Cl)cc2c(-c2ccccc2)c1-c1ccc(Cl)cc1Cl` [F5], the activity at 30 µM in test [1] amounted to 105%. On the same count and under the same terms, the same measure for `O=c1oc2cc(O)ccc2c(-c2ccccc2)c1-c1cccc(Cl)c1` [H2]: 334%. Same read-out and setting: the same measure for `O=c1oc2ccc(Br)cc2c(-c2ccc(Cl)cc2)c1-c1ccc(Cl)cc1` [G3]: 365%. As for `O=c1oc2ccccc2c(-c2ccccc2)c1-c1cccc(Br)c1` [G5], the activity at 30 µM in test [1] turned out to be 65.1%. For the compound `O=c1oc2ccc(Br)cc2c(-c2ccccc2Cl)c1-c1cccc(Cl)c1` [F3], the activity at 30 µM in test [1] was determined as 302%. The same measure, in the same setting: the same measure for `O=c1oc2c(Br)cc(Cl)cc2c(-c2ccccc2)c1-c1ccc(Br)cc1` [B2]: 331%. Still for that read-out and setting: the same measure for `O=c1oc2ccc(Br)cc2c(-c2ccccc2)c1-c1cccc(Cl)c1` [F4]: 365%.

For the compound `Cc1ccc2oc(=O)c(-c3ccccc3)c(-c3ccccc3)c2c1` [H5], in test [1], the activity at 30 µM is 70.1%. Still for that read-out and setting: the same measure for `Cc1cc2oc(=O)c(-c3ccc(Cl)cc3Cl)c(-c3ccccc3)c2cc1Cl` [A4]: 361%.

Consider `O=c1oc2c(Cl)cc(Cl)cc2c(-c2ccc(Cl)cc2)c1-c1ccccc1` [C6], for which, in test [1], the activity at 30 µM was determined as 104%. Take `Cc1cc2oc(=O)c(-c3ccccc3)c(-c3ccccc3)c2cc1Cl` [A5]: the activity at 30 µM in test [1] is 62.3%. The same measure, in the same setting: the figure for `Cc1ccc2c(-c3ccccc3)c(-c3ccc(Br)cc3)c(=O)oc2c1` [B4] is 390%; for `O=CC1Cc2cc3c4c(c2OC1=O)CCCN4CCC3` (centres unmarked) [E6] it is 367%. For `O=c1oc2ccc(Cl)cc2c(-c2ccccc2)c1-c1ccccc1Cl` [D4], in test [1], the activity at 30 µM was determined as 369%.

On to `O=c1oc2ccccc2c(-c2ccccc2)c1-c1ccc(Cl)cc1Cl` [B3], for which, in test [1], the activity at 30 µM was determined as 338%. On the same count and under the same terms, the figure for `O=c1oc2ccc(Br)cc2c(-c2ccccc2)c1-c1ccc(Br)cc1` [E5] is 92.5%. Still for that read-out and setting: the figure for `Cc1cc2oc(=O)c(-c3ccc(Cl)cc3Cl)c(-c3ccc(Cl)cc3)c2cc1Cl` [D6] is 360%. For dafachronic acid [reference compound], the “DAF-12 activity (luciferase)” value in test [2] is “increase DAF-12 activity in a dose dependent manner”.

For the compound `CC(C)(C)OC(=O)C1Cc2cc3c4c(c2OC1=O)CCCN4CCC3` (centres unmarked) [C3 ST083673], in test [1], the activity at 30 µM came to 328%. Same read-out and setting: the figure for `O=c1oc2c(Cl)cc(Cl)cc2c(-c2ccccc2)c1-c1ccccc1` [C5] is 87.2%; for `O=c1oc2ccc(Br)cc2c(-c2ccccc2)c1-c1ccccc1Cl` [E3] it is 347%. The same measure, in the same setting: the figure for `O=c1oc2cc(O)cc(-c3ccccc3)c2cc1-c1ccccc1Cl` [C3 ST081388] is 317%; for `O=C(O)C1Cc2cc3c4c(c2CC1=O)CCCN4CCC3` (centres unmarked) [D2] it is 336%; for `O=c1oc2ccc(Cl)cc2c(-c2ccccc2)c1-c1ccc(Cl)cc1Cl` [B5] it is 83.2%. Turning to `COc1ccc(-c2c(-c3ccccc3)c3ccc(O)cc3oc2=O)c(Cl)c1OC` [D3], the activity at 30 µM in test [1] is 381%.

For the compound `C=CCOc1ccc2c(-c3ccccc3)c(-c3cccc(Br)c3)c(=O)oc2c1` [E4], the activity at 30 µM in test [1] was 400%.

As for `Cc1cc2oc(=O)c(-c3ccc(Br)cc3)c(-c3ccccc3)c2cc1Cl` [G4], the activity at 30 µM in test [1] came out at 390%. Consider `O=c1oc2cc(O)ccc2c(-c2ccccc2)c1-c1ccccc1` [C2], for which the activity at 30 µM in test [1] turned out to be 311%.

In the case of `O=c1oc2cc(O)ccc2c(Cc2ccc(Cl)cc2)c1-c1ccccc1` [A3], the activity at 30 µM in test [1] was found to be 324%.
